Values joined by “and” are separate entries in the source; they are usually repeats but may differ in a detail not shown here. Equal values may be shown once.
Key:
wild-type HIV-1 strains = conditions: cited from earlier work
[1] = system: HIV-1 strains harboring different resistance-inducing mutations; conditions: cited from earlier work
Solubility in water = assay type: physicochemical
[2] = In vitro release from platinum-catalyzed silicone matrix rings (200 mg dapivirine, 32 mg levonorgestrel), storage stability study; assay type: physicochemical; conditions: for Release at week-two time point: rings with micronized levonorgestrel and micronized dapivirine, stored two weeks
Description: Platinum-catalyzed silicone matrix intravaginal rings comprising 200 mg micronized dapivirine and 32 mg levonorgestrel (both micronized and non-micronized) were utilized in this study. FIGS. 1 and 2 depict the mean and cumulative daily release of dapivirine and levonorgestrel versus time for micronized levonorgestrel and micronized dapivirine on storage stability. […] For the non-micronized levonorgestrel rings, there was less than 100% recovery of the amount of levonorgestrel added in two of the rings tested for content after initial release rate testing. […] All of the levonorgestrel release rate results obtained in this study are likely to have been influenced by this phenomenon.

[3] = In vitro release from addition-cured (Pt) LSR9-9508-30 matrix vaginal rings; assay type: physicochemical; conditions: for Total release, % of initial drug loading / Time after which release ceased: LSR9-9508-30 matrix rings, 21-day study; for Total release, % of initial drug loading: non-micronized LNG, micronized EE, micronized ET; for Release mechanism: LSR9-9508-30 rings, duration of the 21-day study
Text: (§1) Formulations of dapivirine (DAP or DPV) with a contraceptive hormone were investigated for use with a multipurpose prevention technology (MPT) intravaginal ring system. Dapivirine and non-micronized levonorgestrel (LNG), micronized ethinyl estradiol (EE), or micronized etonogestrel (ET) were studied in condensation cured (Sn) or addition cured (Pt) silicone systems. Matrix-type vaginal rings were manufactured by injection moulding, using either MEDS-6382 (condensation-cured) or LSR9-9508-30 (addition-cured) silicone elastomers. Release of DAP and LNG from the LSR9-9508-30 rings was diffusion-controlled for the duration of the 21-day study. Total DAP release was 41% of the initial loading, while only 29% LNG loading was released. Both drugs would have continued to be released beyond 21 days had the study had continued. However, release of EE and ET ceased after 13 and 8 days respectively, with only 36 and 23% of initial drug loading released.

[4] = Raman microscopy to assess drug binding to poly(methylhydrosiloxane); assay type: physicochemical; conditions: Raman microscopy (FIG. 12)
Text: FIG. 12 depicts Raman microscopy studies to assess drug binding to poly(methylhydrosiloxane). LNG: levonorgestrel, DAP: dapivirine, PRG: progesterone, EE: Ethynyl estradiol.
To determine the binding site of compounds to the silicone polymer, Raman spectroscopy studies were undertaken. In the first study, scanning Raman microscopy was used as a method for mapping drug distribution in silicone elastomer films. Thin films were created using NuSil DDU-4320 silicone elastomer and either dapivirine, micronized levonorgestrel, or non-micronized levonorgestrel. 400 points were sampled. In the second study, Raman microscopy was used as a tool to assess binding to poly(methylhydrosiloxane).

[5] = In vitro release from condensation-cured (Sn) MEDS-6382 matrix vaginal rings; assay type: physicochemical
Text: as §1

[6] = Recovery from NuSil MED-4870 platinum-catalyzed silicone slabs; assay type: physicochemical; conditions: for % LNG Recoverable: MED-4870 slab
Description: (§2) Methods for assaying the percent of compound having a terminal alkene, alkyne or carbonyl group recoverable from or covalently bound to a platinum-catalyzed silicone intravaginal drug delivery device of the invention are commonly known in the art. For example, silicone intravaginal rings, slabs or IUDs can be added to a glass flask. 5 mL of a 2.5 mg/mL norethindrone solution (NOR; present as an internal standard) in methanol can be added to the flask along with 95 mL of dichlormethane (DCM). The flask can be placed in a rotating orbital incubator set at 37° C. and 60 rpm for 72 hours. A 2 mL aliquot of the cooled extraction mixture can be transferred to a glass centrifuge tube and allowed to evaporate to dryness. The dried samples can be reconstituted in 10 mL of methanol with vortex mixing for 30 seconds and sonication for 40 minutes. A 1:10 dilution of this solution can be prepared using methanol and water such that the final solvent composition is 1:1. This solution and be analyzed by HPLC. Recovery can be expressed as a percentage of predicted compound as compared to the original amount of compound present in the silicone intravaginal ring, slab or IUD. The final data can be corrected based on the recovery of a control solution of known compound concentration that was “extracted” at the same time.
Higher cure temperatures were required for the NuSil MED-4870 system to ensure sufficient curing to allow for slab removal from the molds. […]

[7] = Recovery from NuSil DDU-4320 platinum-catalyzed silicone slabs or rings; assay type: physicochemical; conditions: DDU-4320 slab
Description: as §2
The influence of silicone polymer system cure time, and cure temperature on levonorgestrel was also investigated. With the understanding that the NuSil DDU-4320 could be cured at a lower temperature than NuSil MED-4870, process optimization proceeded with NuSil DDU-4320.
For example, at a cure temperature and time of 100° C. for 7 minutes, approximately 87% of the LNG added was recovered using non-micronized LNG, compared with only 12% for micronized LNG. LNG recovery decreased with increasing cure temperature and cure time for both the micronized and non-micronized LNG. For example, the recovery of micronized LNG falls from 35% to zero as the cure time at 100° C. is increased from 1.5 minutes to 30 minutes. Similarly, the recovery of non-micronized LNG falls from approximately 87% to 59% as the cure temperature is increased from 60° C. to 160° C. at a cure time of 7 minutes.
In an effort to define the maximum possible recovery of contraceptive using the best possible conditions for manufacture, further silicone slabs were prepared with non-micronized LNG. In this case, a low temperature manufacture at 60° C. with a cure time of 6 minutes was compared to a shorter higher temperature cure of 100° C. for 1.5 minutes. In addition, to define precisely the recovery of LNG expected from a ring compared to a slab, intravaginal rings were also prepared under the above conditions. […]

Cc1cc(C)c(Nc2ccnc(Nc3ccc(C#N)cc3)n2)c(C)c1 [DAP, 4-[[4-[(2,4,6-trimethylphenyl)amino]-2-pyrimidinyl]amino]benzonitrile]
Activity against wild-type HIV-1 strains (wild-type HIV-1 strains): potent activity
Activity against HIV-1 strains harboring resistance-inducing mutations [1]: potent activity
Solubility in water (Solubility in water): virtually insoluble in water
solubility (Solubility in water; water): < 1 µg/mL
Release at week-two time point [2]: reasonable dapivirine release
Total release, % of initial drug loading [3]: 41%
Release mechanism [3]: diffusion-controlled
Covalent binding to the silicone polymer [4]: do not covalently bind

C#C[C@]1(O)CC[C@H]2[C@@H]3CCc4cc(O)ccc4[C@H]3CC[C@@]21C [EE, Ethynyl Estradiol]
Total release, MEDS-6382 compared with LSR9-9508-30 [5]: greater from MEDS-6382 than LSR9-9508-30
Time after which release ceased [3]: 13 days
Total release, % of initial drug loading [3]: 36%
Covalent binding to the silicone polymer [4]: covalently bind

C#C[C@]1(O)CC[C@H]2[C@@H]3CCC4=CC(=O)CC[C@@H]4[C@H]3C(=C)C[C@@]21CC [ET, etonogestrel]
Total release, MEDS-6382 compared with LSR9-9508-30 [5]: greater from MEDS-6382 than LSR9-9508-30
Time after which release ceased [3]: 8 days
Total release, % of initial drug loading [3]: 23%

C#C[C@]1(O)CC[C@H]2[C@@H]3CCC4=CC(=O)CC[C@@H]4[C@H]3CC[C@@]21CC [LNG, 13-ethyl-17-ethynyl-17-hydroxy-1,2,6,7,8,9,10,11,12,13,14,15,16,17-tetrad-ecahydrocyclopenta[a]phenanthren-3-one]
Levonorgestrel content of slab ([6]; NuSil MED-4870 slab heated at 160° C. for 5 minutes): 47%
% LNG Recoverable ([6]; micronized, 120° C., 10 min): 0%
% LNG Recoverable ([6]; micronized, 140° C., 10 min): 0%
% LNG Recoverable ([6]; micronized, 160° C., 1.5 min): 0%
% LNG Recoverable ([6]; micronized, 160° C., 7 min): 0%
% LNG Recoverable ([6]; micronized, 160° C., 10 min): 0%
% LNG Recoverable ([6]; micronized, 160° C., 15 min): 0%
% LNG Recoverable ([6]; micronized, 160° C., 20 min): 0%
% LNG Recoverable ([6]; micronized, 160° C., 30 min): 0%
% LNG Recoverable ([6]; micronized, 160° C., 120 min): 0%
% LNG Recoverable ([6]; micronized, 180° C., 10 min): 0%
% LNG Recoverable ([6]; micronized, 200° C., 10 min): 0%
% LNG Recoverable ([6]; non-micronized, 120° C., 10 min): 65%
% LNG Recoverable ([6]; non-micronized, 140° C., 10 min): 55%
% LNG Recoverable ([6]; non-micronized, 160° C., 1.5 min): 65%
% LNG Recoverable ([6]; non-micronized, 160° C., 7 min): 47%
% LNG Recoverable ([6]; non-micronized, 160° C., 10 min): 60%
% LNG Recoverable ([6]; non-micronized, 160° C., 15 min): 33%
% LNG Recoverable ([6]; non-micronized, 160° C., 20 min): 28%
% LNG Recoverable ([6]; non-micronized, 160° C., 30 min): 10%
% LNG Recoverable ([6]; non-micronized, 160° C., 120 min): 0%
% LNG Recoverable ([6]; non-micronized, 180° C., 10 min): 8%
% LNG Recoverable ([6]; non-micronized, 200° C., 10 min): 0%
Release from platinum catalyzed silicone rings, non-micronized compared to micronized ([2]; non-micronized levonorgestrel): increased release
Release of levonorgestrel detected initially (T0) ([2]; rings with micronized levonorgestrel): negligible release
Release at week-two time point [2]: lack of levonorgestrel release
Total release, % of initial drug loading [3]: 29%
Release mechanism [3]: diffusion-controlled
% LNG Recoverable ([7]; micronized, 60° C., 7 min): 75%
% LNG Recoverable ([7]; micronized, 80° C., 7 min): 50%
% LNG Recoverable ([7]; micronized, 100° C., 1.5 min): 35% and 37%
% LNG Recoverable ([7]; micronized, 100° C., 3 min): 25%
% LNG Recoverable ([7]; micronized, 100° C., 7 min): 10% and 18%
% LNG Recoverable ([7]; micronized, 100° C., 15 min): 2%
% LNG Recoverable ([7]; micronized, 100° C., 120 min): 0%
% LNG Recoverable ([7]; micronized, 120° C., 7 min): 0%
% LNG Recoverable ([7]; micronized, 140° C., 7 min): 0%
% LNG Recoverable ([7]; micronized, 160° C., 7 min): 0%
% LNG Recoverable ([7]; non-micronized, 80° C., 7 min): 83%
% LNG Recoverable ([7]; non-micronized, 100° C., 3 min): 82%
% LNG Recoverable ([7]; non-micronized, 100° C., 15 min): 85%
% LNG Recoverable ([7]; non-micronized, 100° C., 30 min): 80%
% LNG Recoverable ([7]; non-micronized, 100° C., 120 min): 75%
% LNG Recoverable ([7]; non-micronized, 120° C., 7 min): 83%
% LNG Recoverable ([7]; non-micronized, 140° C., 7 min): 82% and 80%
% LNG Recoverable ([7]; non-micronized, 160° C., 7 min): 58%
% LNG Recoverable ([7]; non-micronized, 160° C., 7 min, listed as levonorgestrel): 59%
Covalent binding to the silicone polymer [4]: covalently bind

CC(=O)[C@H]1CC[C@H]2[C@@H]3CCC4=CC(=O)CC[C@]4(C)[C@H]3CC[C@]12C [PRG, Progesterone]
Covalent binding to the silicone polymer [4]: covalently bind

Source: patent US20170224823A1, “PLATINUM-CATALYZED SILICONE DRUG DELIVERY DEVICES AND METHODS OF USE THEREOF” (priority 2014, published 2017)
